Assay results: patent US8901118B2, “Compounds and methods for kinase modulation, and indications therefor” (Plexxikon Inc., priority 2010, dated 2014)

Key:
[1] = target: CYP2D6 (Homo sapiens, UniProt P10635); assay: CYP2D6 inhibition (fluorescent substrate AMMC); type: in vitro ADME; conditions: read-out: Cyp IC50 2D6
Outline: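 Compounds, serially diluted 1:1 over 10 points in NADPH-regenerating cofactor mix with 5% acetonitrile, were preincubated 10 min at 37 °C, then run with enzyme and substrate at 37 °C (CYP1A2 15 min; CYP2C9 45 min; CYP2C19, CYP2D6 30 min). Product fluorescence gave IC50s.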

[2] = target: CYP3A4(BFC) (Homo sapiens, UniProt P08684); assay: CYP3A4(BFC) inhibition; type: in vitro ADME; conditions: CYP3A4, substrate BFC; read-out: Cyp IC50 3A4(BFC)
Outline: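 Inhibition of human CYP3A4 with the BFC substrate was measured by fluorescence loss of the metabolized product. Compounds at 100 mM in DMSO were diluted 1 μL into 82 μL acetonitrile, then 11 μL into 204 μL cofactor mix with NADPH regeneration solutions, and serially diluted 1:1 to 10 points. Plates were incubated 30 min at 37° C and read at 409 ex/460 em to obtain IC50.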

[3] = target: T1, BCR-NTRK2 BaF3 cells (Homo sapiens, UniProt Q16620); assay: BaF3 BCR-NTRK2 cell proliferation assay (ATPlite); type: cell-based; conditions: read-out: Inhibition of Cell Proliferation IC50, BCR/BaF3 TrkB
T1 construct: fused on or other part: P11274 (Breakpoint cluster region protein)
Outline: (§1)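 ATP-based luminescence (ATPlite), read after 10 min at room temperature, served as a proxy for cell number, and IC50 was fitted against compound concentration. Before that, cells were treated for 3 days with an 8-point 1:3 dilution series starting at 10 μM. BaF3 cells were plated at 10,000/well without IL-3, and MV-4-11 cells at 25,000/well.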

[4] = target: T2, BCR-FMS BaF3 cells (Homo sapiens, UniProt P07333); assay: BaF3 BCR-FMS cell proliferation assay (ATPlite); type: cell-based; conditions: read-out: Inhibition of Cell Proliferation IC50, BCR/BaF3 Fms
T2 construct: fused on or other part: P11274 (Breakpoint cluster region protein)
T2 sequence (P07333 582-910): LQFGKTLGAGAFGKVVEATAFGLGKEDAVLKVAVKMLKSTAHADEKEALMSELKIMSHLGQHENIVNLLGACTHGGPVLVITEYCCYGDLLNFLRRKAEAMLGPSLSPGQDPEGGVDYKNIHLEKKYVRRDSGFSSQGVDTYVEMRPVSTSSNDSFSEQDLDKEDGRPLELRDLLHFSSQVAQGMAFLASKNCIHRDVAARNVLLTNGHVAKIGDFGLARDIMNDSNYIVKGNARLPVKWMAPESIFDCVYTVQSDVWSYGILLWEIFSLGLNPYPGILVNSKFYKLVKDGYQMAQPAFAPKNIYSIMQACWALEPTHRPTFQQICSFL
Outline: as §1

T1 sequence (Q16620 538-807): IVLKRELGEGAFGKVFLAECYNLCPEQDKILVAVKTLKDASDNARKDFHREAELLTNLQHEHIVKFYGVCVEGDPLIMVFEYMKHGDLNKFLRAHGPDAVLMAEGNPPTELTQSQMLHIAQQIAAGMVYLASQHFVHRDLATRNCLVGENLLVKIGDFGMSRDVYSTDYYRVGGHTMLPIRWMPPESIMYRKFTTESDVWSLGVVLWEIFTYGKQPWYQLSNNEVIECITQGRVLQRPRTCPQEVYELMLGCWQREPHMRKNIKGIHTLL
Sequence of CYP3A4(BFC) (P08684 whole entry): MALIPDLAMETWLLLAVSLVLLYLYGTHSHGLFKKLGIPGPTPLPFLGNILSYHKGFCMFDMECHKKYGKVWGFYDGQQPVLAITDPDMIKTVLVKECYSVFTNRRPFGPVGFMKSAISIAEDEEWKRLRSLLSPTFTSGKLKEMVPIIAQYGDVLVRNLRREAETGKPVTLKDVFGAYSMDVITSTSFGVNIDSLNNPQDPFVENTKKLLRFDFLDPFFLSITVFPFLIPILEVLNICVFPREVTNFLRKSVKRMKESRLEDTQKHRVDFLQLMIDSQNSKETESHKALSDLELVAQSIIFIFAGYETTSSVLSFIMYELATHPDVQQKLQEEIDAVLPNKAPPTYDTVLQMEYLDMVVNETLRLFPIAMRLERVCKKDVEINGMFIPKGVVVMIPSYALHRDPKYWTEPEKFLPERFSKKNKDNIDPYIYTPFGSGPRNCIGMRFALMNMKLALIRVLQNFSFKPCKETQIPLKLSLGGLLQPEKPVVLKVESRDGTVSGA
Sequence of CYP2D6 (P10635 whole entry): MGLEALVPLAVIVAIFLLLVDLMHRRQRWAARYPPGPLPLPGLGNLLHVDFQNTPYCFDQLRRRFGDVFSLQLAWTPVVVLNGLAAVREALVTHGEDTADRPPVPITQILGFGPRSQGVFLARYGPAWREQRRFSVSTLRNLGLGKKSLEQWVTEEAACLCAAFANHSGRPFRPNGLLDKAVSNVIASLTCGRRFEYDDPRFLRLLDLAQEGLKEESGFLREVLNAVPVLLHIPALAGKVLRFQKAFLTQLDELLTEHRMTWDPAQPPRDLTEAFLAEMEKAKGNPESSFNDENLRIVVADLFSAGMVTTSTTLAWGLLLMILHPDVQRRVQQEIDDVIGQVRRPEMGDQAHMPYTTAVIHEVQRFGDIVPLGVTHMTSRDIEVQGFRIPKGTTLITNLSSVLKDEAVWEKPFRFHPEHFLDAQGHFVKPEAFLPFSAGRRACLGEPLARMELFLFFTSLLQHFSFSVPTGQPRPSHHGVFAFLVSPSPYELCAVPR

Compound | IC50 [1] [µM] | IC50 [2] [µM] | IC50 [3] [µM] | IC50 [4] [µM]
COc1ccc(Nc2ccc(C(=O)c3c[nH]c4ncnc(NCc5ccc(C(F)(F)F)nc5)c34)c(F)n2)cn1 [Compound P-4071, [2-fluoro-6-[(6-methoxy-3-pyridyl)amino]-3-pyridyl]-[4-[[6-(trifluoromethyl)-3-pyridyl]methylamino]-7H-pyrrolo[2,3-d]pyrimidin-5-yl]methanone] | > 10 | > 10 | < 0.1 | < 0.1
O=C(c1ccc(NC2CCC(F)(F)CC2)nc1F)c1c[nH]c2ncnc(NC3CC3)c12 [Compound P-4062, [4-(cyclopropylamino)-7H-pyrrolo[2,3-d]pyrimidin-5-yl]-[6-[(4,4-difluorocyclohexyl)amino]-2-fluoro-3-pyridyl]methanone] | > 10 | > 10 | < 0.01 | < 0.1
CCc1ccc(Nc2ccc(C(=O)c3c[nH]c4ncnc(NC)c34)c(F)n2)cn1 [Compound P-4124, [6-[(6-ethyl-3-pyridyl)amino]-2-fluoro-3-pyridyl]-[4-(methylamino)-7H-pyrrolo[2,3-d]pyrimidin-5-yl]methanone] | < 5 | > 10 | < 0.01 | < 0.01
Fc1ccc(Nc2ncc(Cc3c[nH]c4ncc(Cl)cc34)cn2)cc1 [Compound P-3012, [5-(5-Chloro-1H-pyrrolo[2,3-b]pyridin-3-ylmethyl)-pyrimidin-2-yl]-(4-fluoro-phenyl)-amine] | > 10 | > 10 | < 1 | < 0.1
COc1ccc(Nc2ccc(C(=O)c3c[nH]c4ncnc(NCC(F)(F)F)c34)c(F)n2)cn1 [Compound P-4084, [2-fluoro-6-[(6-methoxy-3-pyridyl)amino]-3-pyridyl]-[4-(2,2,2-trifluoroethylamino)-7H-pyrrolo[2,3-d]pyrimidin-5-yl]methanone] | > 10 | > 10 | < 0.01 | < 0.01
CNc1ncnc2[nH]cc(C(=O)c3ccc(Nc4ccc(OC)nc4)nc3F)c12 [Compound P-4083, [2-fluoro-6-[(6-methoxy-3-pyridyl)amino]-3-pyridyl]-[4-(methylamino)-7H-pyrrolo[2,3-d]pyrimidin-5-yl]methanone] | > 10 | > 10 | < 0.01 | < 0.1
O=C(c1ccc(Nc2ccc(C(F)(F)F)nc2)nc1F)c1c[nH]c2ncnc(NC3CC3)c12 [Compound P-4091, [4-(cyclopropylamino)-7H-pyrrolo[2,3-d]pyrimidin-5-yl]-[2-fluoro-6-[[6-(trifluoromethyl)-3-pyridyl]amino]-3-pyridyl]methanone] | > 10 | > 10 | < 0.01 | < 0.01
O=C(c1ccc(NC2CCC(F)(F)CC2)nc1Cl)c1c[nH]c2ncnc(NCC(F)(F)F)c12 [Compound P-4057, [2-chloro-6-[(4,4-difluorocyclohexyl)amino]-3-pyridyl]-[4-(2,2,2-trifluoroethylamino)-7H-pyrrolo[2,3-d]pyrimidin-5-yl]methanone] | > 10 | > 10 | > 1 | < 1
CCc1ccc(Nc2ccc(C(=O)c3c[nH]c4ncnc(NCCCOC)c34)c(F)n2)cn1 [Compound P-4098, [6-[(6-ethyl-3-pyridyl)amino]-2-fluoro-3-pyridyl]-[4-(3-methoxypropylamino)-7H-pyrrolo[2,3-d]pyrimidin-5-yl]methanone] | < 5 | > 10 | < 0.01 | < 0.1
COc1ccc(Nc2ccc(C(=O)c3c[nH]c4ncnc(NCC5CC5)c34)c(F)n2)cn1 [Compound P-4067, [4-(cyclopropylmethylamino)-7H-pyrrolo[2,3-d]pyrimidin-5-yl]-[2-fluoro-6-[(6-methoxy-3-pyridyl)amino]-3-pyridyl]methanone] | > 10 | > 10 | < 0.01 | < 0.01
CCc1ccc(Nc2ccc(C(=O)c3c[nH]c4ncnc(NCC(F)(F)F)c34)c(F)n2)cn1 [Compound P-4120, [6-[(6-ethyl-3-pyridyl)amino]-2-fluoro-3-pyridyl]-[4-(2,2,2-trifluoroethylamino)-7H-pyrrolo[2,3-d]pyrimidin-5-yl]methanone] | < 5 | > 10 | < 0.01 | < 0.1
CCc1ccc(Nc2ccc(C(=O)c3c[nH]c4ncnc(NC5CC5)c34)c(F)n2)cn1 [Compound P-4125, [4-(cyclopropylamino)-7H-pyrrolo[2,3-d]pyrimidin-5-yl]-[6-[(6-ethyl-3-pyridyl)amino]-2-fluoro-3-pyridyl]methanone] | > 5 | > 10 | < 0.01 | < 0.01
O=C(c1ccc(NC2CCC(F)(F)CC2)nc1)c1c[nH]c2ncnc(NCC(F)(F)F)c12 [Compound P-4087, [6-[(4,4-difluorocyclohexyl)amino]-3-pyridyl]-[4-(2,2,2-trifluoroethylamino)-7H-pyrrolo[2,3-d]pyrimidin-5-yl]methanone] | > 10 | > 10 | < 0.1 | < 1
Cc1ccc(Nc2ccc(C(=O)c3c[nH]c4ncnc(NCC(F)(F)F)c34)c(F)n2)cn1 [Compound P-4112, [2-fluoro-6-[(6-methyl-3-pyridyl)amino]-3-pyridyl]-[4-(2,2,2-trifluoroethylamino)-7H-pyrrolo[2,3-d]pyrimidin-5-yl]methanone] | < 5 | > 10 | < 0.1 | < 0.1
COc1ccc(Nc2ccc(C(=O)c3c[nH]c4ncnc(NCC5CCCO5)c34)c(F)n2)cn1 (stereo not drawn) [Compound P-4073, [2-fluoro-6-[(6-methoxy-3-pyridyl)amino]-3-pyridyl]-[4-(tetrahydrofuran-2-ylmethylamino)-7H-pyrrolo[2,3-d]pyrimidin-5-yl]methanone] | > 10 | > 10 | < 0.01 | < 0.1
COc1ccc(Nc2ccc(C(=O)c3c[nH]c4ncnc(N[C@@H](C)c5ccc(F)cc5)c34)c(F)n2)cn1 [Compound P-4072, [2-fluoro-6-[(6-methoxy-3-pyridyl)amino]-3-pyridyl]-[4-[[(1S)-1-(4-fluorophenyl)ethyl]amino]-7H-pyrrolo[2,3-d]pyrimidin-5-yl]methanone] | 5 to 10 | > 10 | < 0.01 | < 0.1
O=C(c1ccc(Nc2ccc(C3CC3)nc2)nc1F)c1c[nH]c2ncnc(NC3CC3)c12 [Compound P-4093, [4-(cyclopropylamino)-7H-pyrrolo[2,3-d]pyrimidin-5-yl]-[6-[(6-cyclopropyl-3-pyridyl)amino]-2-fluoro-3-pyridyl]methanone] | > 10 | > 10 | < 0.01 | < 0.01
CCc1ccc(Nc2ccc(C(=O)c3c[nH]c4ncnc(NC5CCCC5)c34)c(F)n2)cn1 [Compound P-4099, [4-(cyclopentylamino)-7H-pyrrolo[2,3-d]pyrimidin-5-yl]-[6-[(6-ethyl-3-pyridyl)amino]-2-fluoro-3-pyridyl]methanone] | < 5 | > 10 | < 0.01 | < 0.01
